Data taken from patent US6251919A, “Heterocyclic substituted aniline calcium channel blockers” (Warner-Lambert, priority 1999, dated 2001).
Values joined by “and” are separate entries in the source; they are usually repeats but may differ in a detail not shown here. Equal entries are not always repeated.

Biological target: T1, N-type Ca^2+ channel in IMR-32 cells (Homo sapiens, UniProt Q00975)
T1 construct: host or cells: IMR-32 (differentiated with dibutyryl cAMP and bromodeoxyuridine)
Assay: N-type Ca2+ channel blockade in IMR-32 cells (fluorescent Ca2+ indicator Indo-1)
Format: cell-based
Conditions: 5 μM nitrendipine present; for inhibition at 1 µM: IMR-32, 1 μM; for inhibition at 10 µM: IMR-32, 10 μM

T1 sequence (Q00975 whole entry): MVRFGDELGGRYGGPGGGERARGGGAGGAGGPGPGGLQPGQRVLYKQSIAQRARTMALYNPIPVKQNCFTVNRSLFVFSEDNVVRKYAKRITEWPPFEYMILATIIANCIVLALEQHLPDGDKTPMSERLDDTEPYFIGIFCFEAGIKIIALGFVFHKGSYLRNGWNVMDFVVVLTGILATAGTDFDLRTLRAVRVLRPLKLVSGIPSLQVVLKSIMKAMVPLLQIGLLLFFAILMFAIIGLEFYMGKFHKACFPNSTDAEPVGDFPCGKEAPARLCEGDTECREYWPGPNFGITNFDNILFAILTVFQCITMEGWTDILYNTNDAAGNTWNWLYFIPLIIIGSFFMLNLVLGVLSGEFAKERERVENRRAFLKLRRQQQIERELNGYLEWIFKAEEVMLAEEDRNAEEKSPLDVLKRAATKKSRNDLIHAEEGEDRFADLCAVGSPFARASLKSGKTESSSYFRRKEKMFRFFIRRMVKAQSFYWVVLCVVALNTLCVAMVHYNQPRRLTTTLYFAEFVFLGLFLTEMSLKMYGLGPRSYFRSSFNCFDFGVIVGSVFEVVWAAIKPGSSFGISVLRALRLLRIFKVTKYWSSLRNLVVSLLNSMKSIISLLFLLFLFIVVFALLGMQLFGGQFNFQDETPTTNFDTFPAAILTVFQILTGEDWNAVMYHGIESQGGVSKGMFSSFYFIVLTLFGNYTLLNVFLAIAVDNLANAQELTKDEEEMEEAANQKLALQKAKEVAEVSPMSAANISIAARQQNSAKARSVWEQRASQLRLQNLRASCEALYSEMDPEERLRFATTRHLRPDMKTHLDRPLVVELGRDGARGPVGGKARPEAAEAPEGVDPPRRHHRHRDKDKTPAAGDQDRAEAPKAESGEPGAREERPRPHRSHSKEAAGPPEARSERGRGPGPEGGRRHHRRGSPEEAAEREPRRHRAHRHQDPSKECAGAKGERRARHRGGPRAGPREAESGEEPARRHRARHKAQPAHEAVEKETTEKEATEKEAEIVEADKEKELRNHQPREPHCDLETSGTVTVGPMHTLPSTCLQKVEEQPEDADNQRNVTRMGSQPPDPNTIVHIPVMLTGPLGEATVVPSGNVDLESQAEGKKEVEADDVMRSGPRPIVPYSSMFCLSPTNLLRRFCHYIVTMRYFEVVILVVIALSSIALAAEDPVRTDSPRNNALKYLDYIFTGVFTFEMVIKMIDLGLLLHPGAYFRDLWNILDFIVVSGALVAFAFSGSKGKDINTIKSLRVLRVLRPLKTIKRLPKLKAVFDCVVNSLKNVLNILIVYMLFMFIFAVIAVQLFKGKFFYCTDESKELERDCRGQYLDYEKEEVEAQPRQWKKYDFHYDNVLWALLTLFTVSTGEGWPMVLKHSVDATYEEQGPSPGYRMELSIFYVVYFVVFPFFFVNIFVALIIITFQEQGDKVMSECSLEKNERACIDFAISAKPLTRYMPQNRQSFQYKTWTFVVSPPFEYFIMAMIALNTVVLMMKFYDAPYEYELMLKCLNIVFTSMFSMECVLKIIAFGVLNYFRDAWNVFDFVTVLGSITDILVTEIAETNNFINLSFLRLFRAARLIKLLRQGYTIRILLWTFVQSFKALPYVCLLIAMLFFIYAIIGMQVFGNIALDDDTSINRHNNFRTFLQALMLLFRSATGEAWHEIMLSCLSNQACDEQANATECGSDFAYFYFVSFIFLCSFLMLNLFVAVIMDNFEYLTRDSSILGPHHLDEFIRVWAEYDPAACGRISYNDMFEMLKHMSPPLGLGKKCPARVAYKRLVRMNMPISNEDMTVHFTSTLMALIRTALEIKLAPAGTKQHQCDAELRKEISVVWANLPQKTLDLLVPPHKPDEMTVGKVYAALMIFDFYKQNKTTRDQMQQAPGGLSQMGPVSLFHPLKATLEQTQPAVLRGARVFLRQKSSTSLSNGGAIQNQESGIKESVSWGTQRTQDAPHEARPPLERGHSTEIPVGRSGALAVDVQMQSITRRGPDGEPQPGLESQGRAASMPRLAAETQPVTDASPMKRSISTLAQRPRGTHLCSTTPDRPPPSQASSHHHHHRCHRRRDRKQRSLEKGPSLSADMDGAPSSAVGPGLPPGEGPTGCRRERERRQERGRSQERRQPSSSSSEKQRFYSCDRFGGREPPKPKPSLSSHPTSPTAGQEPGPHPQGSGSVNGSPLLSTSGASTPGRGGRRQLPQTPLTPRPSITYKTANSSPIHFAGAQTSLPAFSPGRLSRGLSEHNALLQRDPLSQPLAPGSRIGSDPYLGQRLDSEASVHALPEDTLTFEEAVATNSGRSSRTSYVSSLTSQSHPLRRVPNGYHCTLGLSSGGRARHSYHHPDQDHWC

Compound	inhibition at 1 µM	inhibition at 10 µM	IMR 32 % of Blockade @ 1 μM (1 μM)	IC50
CC(C)CCN(c1ccc(OCc2ccc(F)cc2)cc1)C1CCN(CCC(C)(C)C)CC1 [Example 43, [1-(3,3-Dimethyl-butyl)-piperidin-4-yl]-[4-(4-fluoro-benzyloxy)-phenyl]-(3-methyl-butyl)-amine]	65%	99%	–	–
CC(C)=CCN(c1ccc(OCc2ccccc2)cc1)C1CCN(C(=O)C2CCCCN2CCC(C)C)CC1 (stereo not drawn) [Example 11, {4-[(4-Benzyloxy-phenyl)-(3-methyl-but-2-enyl)-amino]-piperidin-1-yl}-[1-(3-methyl-butyl)-piperidin-2-yl]-methanone]	41%	80%	–	–
CC(C)=CCN(c1ccc(CCC(C)(C)C)cc1)C1CCN(Cc2ccc(N(C)C)cc2)CC1 [Example 39, [1-(4-Dimethylamino-benzyl)-piperidin-4-yl]-[4-(3,3-dimethyl-butyl)-phenyl]-(3-methyl-but-2-enyl)-amine]	–	–	85% and 60%	–
CC(C)=CCN(c1ccc(OC(C)C)cc1)C1CCN(Cc2ccc(F)cc2)CC1 [Example 35, [1-(4-Fluoro-benzyl)-piperidin-4-yl]-(4-isopropoxy-phenyl)-(3-methyl-but-2-enyl)-amine]	37%	–	–	–
CC(C)=CCN(c1ccc(OCc2ccccc2)cc1)C1CCN(Cc2ccco2)CC1 [Example 21, (4-Benzyloxy-phenyl)-(1-furan-2-ylmethyl-piperidin-4-yl)-(3-methyl-but-2-enyl)-amine]	–	–	–	3.9 µM
CC(C)=CCN(c1ccc(C(C)C)cc1)C1CCN(CCC(C)(C)C)CC1 [Example 26, [1-(3,3-Dimethyl-butyl)-piperidin-4-yl]-(4-isopropyl-phenyl)-(3-methyl-but-2-enyl)-amine]	43%	–	–	–
CC(C)=CCN(c1ccc(C(C)C)cc1)C1CCN(Cc2ccc[nH]2)CC1 [Example 33, (4-Isopropyl-phenyl)-(3-methyl-but-2-enyl)-[1-(1H-pyrrol-2-ylmethyl)-piperidin-4-yl]-amine]	54%	98%	–	–
CC(C)=CCN(c1ccc(OC(C)C)cc1)C1CCN(CCC(C)(C)C)CC1 [Example 36]	26%	74%	–	–
CC(C)=CCN(c1ccc(CCC(C)(C)C)cc1)C1CCN(CCC(C)C)CC1 [Example 37, [4-(3,3-Dimethyl-butyl)-phenyl]-(3-methyl-but-2-enyl)-[1-(3-methyl-butyl)-piperidin-4-yl]-amine]	31%	92%	–	–
CC(C)=CCN(c1ccc(OCc2ccccc2)cc1)C1CCN(C(=O)C2C(C)CCCN2CCC(C)C)CC1 (stereo not drawn) [Example 18, {4-[(4-Benzyloxy-phenyl)-(3-methyl-but-2-enyl)-amino]-piperidin-1-yl}-[3-methyl-1-(3-methyl-butyl)-piperidin-2-yl]-methanone]	60%	88%	–	–
CC(C)=CCN(c1ccc(OCc2ccccc2)cc1)C1CCCN(Cc2ccccc2)C1 (stereo not drawn) [Example 49, (4-Benzyloxy-phenyl)-(1-benzyl-piperidin-3-yl)-(3-methyl-but-2-enyl)-amine]	–	–	–	1.2 µM
CC(C)=CCN(c1ccc(OCc2ccccc2)cc1)C1CCN(CCCc2ccccc2)CC1 [Example 22, (4-Benzyloxy-phenyl)-(3-methyl-but-2-enyl)-[1-(3-phenyl-propyl)-piperidin-4-yl]-amine]	–	–	–	0.5 µM
CC(C)=CCN(c1ccc(CCC(C)(C)C)cc1)C1CCN(Cc2ccc[nH]2)CC1 [Example 47, [4-(3,3-Dimethyl-butyl)-phenyl]-(3-methyl-but-2-enyl)-[1-(1H-pyrrol-2-ylmethyl)-piperidin-4-yl]-amine]	–	–	–	0.9 µM
CC(C)=CCN(c1ccc(C(C)C)cc1)C1CCN(CCC(C)O)CC1 (stereo not drawn) [Example 27, 4-{4[(4Isopropyl-phenyl)-(3-methyl-but-2-enyl)-amino]-piperidin-1-yl}-butan-2ol]	15%	–	–	–
CC(C)=CCN(c1ccc(OCc2ccccc2)cc1)C1CCN(Cc2ccc(C(C)(C)C)cc2)CC1 [Example 3, (4-Benzyloxy-phenyl)-[1-(4-tert-butyl-benzyl)-piperidin-4-yl]-(3-methyl-but-2-enyl)-amine]	96%	–	–	–
CC(C)=CCN(c1ccc(OCc2ccccc2)cc1)C1CCN(Cc2ccccn2)CC1 [Example 9, (4-Benzyloxy-phenyl)-(3-methyl-but-2-enyl)-(1-pyridin-2-ylmethyl-piperidin-4-yl)-amine]	30%	100%	–	–
CC(C)=CCN(c1ccc(OCc2ccccc2)cc1)C1CCN(Cc2ccc(Br)cc2)CC1 [Example 4, (4-Benzyloxy-phenyl)-[1-(4-bromo-benzyl)-piperidin4-yl]-(3-methyl-but-2-enyl)-amine]	63%	94%	–	–
CC(C)=CCN(c1ccc(C(C)C)cc1)C1CCN(CCC(C)C)CC1 [Example 28, (4-Isopropyl-phenyl)-(3-methyl-but-2-enyl)-[1-(3-methyl-butyl)-piperidin-4-yl]-amine]	41%	–	–	–

Compound	inhibition at 1 µM	inhibition at 10 µM	IMR 32 % of Blockade @ 1 μM (1 μM)	IC50
CC(C)=CCN(c1ccc(OCc2ccccc2)cc1)C1CCN(C(=O)C2CN(C)CCN2CCC(C)C)CC1 (stereo not drawn) [Example 14, {4-[(4-Benzyloxy-phenyl)-(3-methyl-but-2-enyl)-amino]-piperidin-1-yl}-[4-methyl-1-(3-methyl-butyl)-piperazin-2-yl]-methanone]	44%	88%	–	–
CC(C)=CCN(c1ccc(OCc2ccccc2)cc1)C1CCN(C(=O)C2CCCC(C)N2CCC(C)C)CC1 (stereo not drawn) [Example 16, {4-[(4-Benzyloxy-phenyl)-(3-methyl-but-2-enyl)-amino]-piperidin-1-yl}-[6methyl-1-(3-methyl-butyl)-piperidin-2-yl]-methanone]	45%	78%	–	–
CC(C)=CCN(c1ccc(C(C)C)cc1)C1CCN(C(=O)[C@@H](O)CC(C)C)CC1 [Example 45, (S)-2-Hydroxy-1-{4-[(4-isopropyl-phenyl)-(3-methyl-but-2-enyl)-arnino]-piperidin-1-yl}-4-methyl-pentan-1-one]	28%	85%	–	–
CC(C)=CCN(c1ccc(OCc2ccccc2)cc1)C1CCN(C(=O)C2CC(C)CCN2CCC(C)C)CC1 (stereo not drawn) [Example 17, {4-[(4-Benzyloxy-phenyl)-(3-methyl-but-2-enyl)-amino]-piperidin-1-yl}-[4-methyl-1-(3-methyl-butyl)-piperidin-2-yl]-methanone]	86%	76%	–	–
CC(C)CCN(c1ccc(OCC2CCCCC2)cc1)C1CCN(CCC(C)(C)C)CC1 [Example 42, (4-Cyclohexylmethoxy-phenyl)-[1-(3,3-dimethyl-butyl)-piperidin-4-yl]-(3-methyl-butyl)-amine]	60%	81%	–	–
CC(C)=CCN(c1ccc(OCc2ccccc2)cc1)C1CCN(C2CCOCC2)CC1 [Example 10, (4-Benyloxy-phenyl)-(3-methyl-but-2-enyl)-[1-(tetrahydro-pyran4-yl)-piperidin-4-yl]-amine]	15%	62%	–	–
CC(C)=CCN(c1ccc(OCc2ccccc2)cc1)C1CCN(C(=O)C2CCN(CCC(C)C)CC2)CC1 [Example 13, {4-[(4-Benzyloxy-phenyl)-(3-methyl-but-2-enyl)-amino]-piperidin-1-yl}-[1-(3-methyl-butyl)-piperidin-4-yl]-methanone]	37%	75%	–	–
CC(C)=CCN(c1ccc(C(C)C)cc1)C1CCN(C(C)CO)CC1 (stereo not drawn) [Example 32, 2-{4-[(4-lsopropyl-phenyl)-(3-methyl-but-2-enyl)-amino]-piperidin-1-yl}-propan-1-ol]	0%	70%	–	–
CC(C)=CCN(c1ccc(C(C)C)cc1)C1CCN(Cc2ccc(F)cc2)CC1 [Example 29, [1-(4-Fluoro-benzyl)-piperidin-4-yl]-(4-isopropyl-phenyl)-(3-methyl-but-2-enyl)-amine]	17%	84%	–	–
CC(C)=CCN(c1ccc(OCc2ccccc2)cc1)C1CCN(C(=O)C2CCCN(CCC(C)C)C2)CC1 (stereo not drawn) [Example 12, {4-[(4-Benzyloxy-phenyl)-(3-methyl-but-2-enyl)-amino]-piperidin-1-yl}-[1-(3-methyl-butyl)-piperidin-3-yl]-methanone]	49%	75%	–	–
CC(C)=CCN(c1ccc(OCc2ccccc2)cc1)C1CCN(CCc2ccccc2)CC1 [Example 23, (4-Benzyloxy-phenyl)-(3-methyl-but-2-enyl)-(1-phenethyl-piperidin-4-yl)-amine]	–	–	–	0.3 µM
CC(C)=CCN(c1ccc(OC(C)C)cc1)C1CCN(CCC(C)C)CC1 [Example 34, (4-Isopropoxy-phenyl)-(3-methyl-but-2-enyl)-[1-(3-methyl-butyl)-piperidin-4-yl]-amine]	23%	76%	–	–
CC(C)=CCN(c1ccc(CCC(C)(C)C)cc1)C1CCN(CCC(C)(C)C)CC1 [Example 38, [4-(3,3-Dimethyl-butyl)-phenyl]-[1-(3,3-dimethyl-butyl)-piperidin-4-yl]-(3-methyl-but-2-enyl)-amine]	38%	83%	–	–
CC(C)=CCN(c1ccc(OCc2ccccc2)cc1)C1CCN(Cc2ccc(S(C)(=O)=O)cc2)CC1 [Example 24]	–	–	–	1.8 µM
CC(C)CCN(c1ccc(OCC2CCCCC2)cc1)C1CCN(CCC(C)O)CC1 (stereo not drawn) [Example 41, 4-{4-[(4-Cyclohexylmethoxy-phenyl)-(3-methyl-butyl)-amino]-piperidin-1-yl}-butan-2-ol]	–	–	–	1.5 µM
CC(C)=CCN(c1ccc(C(C)C)cc1)C1CCN(Cc2c[nH]cn2)CC1 [Example 31, [1-(1H-Imidazol-4-ylmethyl)-piperidin-4-yl]-(4-isopropyl-phenyl)-(3-methyl-but-2-enyl)-amine]	7%	62%	–	–
CC(C)=CCN(c1ccc(OCc2ccccc2)cc1)C1CCCN(Cc2ccc(C(C)(C)C)cc2)C1 (stereo not drawn) [Example 50, (4-Benzyloxy-phenyl)-[1-(4-tert-butyl-benzyl)-piperidin-3-yl]-(3-methyl-but-2-enyl)-amine]	86%	96%	–	–
